Measurements: paper PMC9170688, “Gametocyte-specific and all-blood-stage transmission-blocking chemotypes discovered from high throughput screening on Plasmodium falciparum gametocytes” (Communications Biology, 2022)
“Also recorded” adds a separate entry of the source.

Tested on: P. falciparum strain NF54-hsp70-luc stage V gametocytes fed to Anopheles stephensi mosquitoes
Assay: whole plant or invertebrate
Type: in vivo, Plasmodium falciparum
Conditions: for transmission blocking activity in SMFA (words, rank): tested at 1 and 10 µM
Experimental: The above selected 30 compounds were subjected to a phenotypic male gamete exflagellation assay. This assay measures the viability of male gametocytes by quantitating the final step of maturation into motile microgametes in vitro[24]. This process naturally occurs in the mosquito gut within minutes from the blood meal. The acquisition of time lapse videos of gamete motility in bright field microscopy and the subsequent analysis to count exflagellation centres were performed in an automated HTS format in 384-well plates. The compounds were tested in two independent biological replicates at the concentration of 1 µM. […] The standard membrane feeding assay (SMFA) is used to measure the parasite transmission through mosquito. In this assay, mature stage V gametocytes of the P. falciparum strain NF54-hsp70-luc were treated with 1 and 10 µM of the nine selected compounds for 24 h, added with human red blood cells and serum to achieve a haematocrit of 50% and then fed to mosquitoes. Luminescence was analyzed in the mosquito salivary glands 8 days post-feeding.
SMFA was performed commercially by TropiQ Health Sciences (Nijmegen, The Netherlands). Test samples were diluted in DMSO and then in RPMI medium (Gibco, 51800043) to achieve a final DMSO concentration of 0.1%. Diluted samples were combined with stage V gametocytes from P. falciparum strain NF54-hsp70-luc and incubated for 24 h. Subsequently, human red blood cells and human serum with the sample were added to achieve a haematocrit of 50%. The blood meal was fed to two-day old Anopheles stephensi mosquitoes that were starved the night prior to the blood meal. […] Mosquito infection was analyzed 8 days post-feeding by luminescence measurements of whole mosquitoes as described previously. For each feeder, luminescence intensity was analyzed in 15–24 mosquitoes per feeder (N = 1, n = 15–24). Luminescence background levels were determined from 15–24 uninfected mosquitoes. Controls: vehicle (0.1% DMSO) in duplicate.

SMILES | SMFA (average # of events) 1 µM (1 µM) | SMFA (average # of events) 10 µM | transmission blocking activity in SMFA (words, rank) (24 h treatment) | transmission blocking in SMFA (1 µM, 24 h treatment) | inhibition at 1 µM (read-out: inhibition of parasite transmission (SMFA)) [%]
OC(c1ccc(Cl)cc1)C1CCN(CCCN2CCC(C(O)c3ccc(Cl)cc3)CC2)CC1 (stereo not drawn) [Compound 13] | 488.21 ± 436.95 | 7.92 ± 1.44 | second most active | – | –
Cc1ccc2nc(-c3ccccc3)c(CSc3cccc[n+]3[O-])n2c1 [Compound 16] | 1226.92 ± 1130.89 | 9.5 ± 9.34 | third most active | – | –
COc1ccccc1Cn1cc2c(-c3ccc(F)cc3)nnc-2c2cc(OC)c(OC)cc21 [Compound 31] | 2637.13 ± 1570.14 | 1559.87 ± 983.2 | moderate transmission blocker | – | –
Clc1ccc(Nc2nc(-c3ccccn3)cs2)nc1 [Compound 39] | 1612.33 ± 1234.03 | 7.33 ± 2.82 | efficiently blocks parasite transmission | – | –
COc1cc(CNCC2CCNCC2)ccc1OCc1cccc(Cl)c1 [Compound 53] | 10.04 ± 12.81 | 6.29 ± 1.85 | – | most active; also recorded: equivalent to that of the positive control MMV0048 | ~100
Cc1ccc(Nc2cc(C)nc(Nc3ccc(NC(=O)c4cc5ccccc5oc4=O)cc3)n2)cc1 [Compound 63] | 2365.33 ± 1952.29 | 6.33 ± 1.79 | – | – | –
COc1ccc(Nc2cc(C)nc(Nc3ccc(NC(=O)c4cc(C)cc(C)c4)cc3)n2)cc1 [Compound 64] | 3707.46 ± 3510.94 | 3885.67 ± 4295.41 | – | – | –
COc1ccc(NC(=O)Nc2ccc(Nc3nc(C)cc(Nc4ccc(C)cc4)n3)cc2)cc1 [Compound 65] | 4000.86 ± 3085.37 | 5.96 ± 1.99 | – | – | –
O=C(c1ccc([N+](=O)[O-])o1)N1CCC(Cn2cnc3ccccc32)CC1 [Compound 69] | 2021.92 ± 1839.86 | 6.17 ± 1.81 | – | – | –
